According to BindingDB's records for doi:10.1021/jm00126a009 (Northeastern University, 1989):

Columns and labels:
[1] = Compound was evaluated for the ability to displace [3H]spiperone at Dopamine receptor D2 in porcine anterior pituitary gland as low affinity state
[2] = Compound was evaluated for the ability to displace [3H]spiperone at Dopamine receptor D2 in porcine anterior pituitary gland as high affinity state
[3] = Compound was evaluated for the ability to displace [3H]spiperone at Dopamine receptor D2 in porcine anterior pituitary gland as low affinity state; remark: listed apart in the source
[4] = Compound was evaluated for the ability to displace [3H]spiperone at dopamine receptor in porcine anterior pituitary gland as high affinity state

## CN1CCc2cc(Br)cc3c2[C@H]1Cc1ccc(O)c(O)c1-3
[1]
  Kd: 0.728 µM
[2]
  Kd: 0.0068 µM

## CN1CCc2cc(N)cc3c2[C@H]1Cc1ccc(O)c(O)c1-3
[1]
  Kd: 3.3 µM
[3]
  Kd: 0.02 µM

## CN1CCc2cc(F)cc3c2[C@H]1Cc1ccc(O)c(O)c1-3 [(R)-2-Fluoro-6-methyl-5,6,6a,7-tetrahydro-4H-dibenzo[de,g]quinoline-10,11-diol]
[4]
  Kd: 0.00043 µM
[2]
  Kd: 0.094 µM
